US6380207B2, “Glucocortiocoid-selective antiinflammatory agents” (Abbott Laboratories, priority 1998, dated 2002)

Assays:
[1] = target: T1, human glucocorticoid receptor-α [GRX] isoform (Homo sapiens, UniProt P04150); experiment: Radioligand binding with human glucocorticoid receptor cytosol ([3H]-dexamethasone); conditions: [3H]-Dex competition, 4° C. overnight, Cheng-Prusoff, read-out: Ki (nM) GR
T1 construct: purchased Ligand Pharmaceuticals (San Diego, Calif.); host or cells: insect SF21 cells (baculovirus)
T1 sequence (P04150 1-777): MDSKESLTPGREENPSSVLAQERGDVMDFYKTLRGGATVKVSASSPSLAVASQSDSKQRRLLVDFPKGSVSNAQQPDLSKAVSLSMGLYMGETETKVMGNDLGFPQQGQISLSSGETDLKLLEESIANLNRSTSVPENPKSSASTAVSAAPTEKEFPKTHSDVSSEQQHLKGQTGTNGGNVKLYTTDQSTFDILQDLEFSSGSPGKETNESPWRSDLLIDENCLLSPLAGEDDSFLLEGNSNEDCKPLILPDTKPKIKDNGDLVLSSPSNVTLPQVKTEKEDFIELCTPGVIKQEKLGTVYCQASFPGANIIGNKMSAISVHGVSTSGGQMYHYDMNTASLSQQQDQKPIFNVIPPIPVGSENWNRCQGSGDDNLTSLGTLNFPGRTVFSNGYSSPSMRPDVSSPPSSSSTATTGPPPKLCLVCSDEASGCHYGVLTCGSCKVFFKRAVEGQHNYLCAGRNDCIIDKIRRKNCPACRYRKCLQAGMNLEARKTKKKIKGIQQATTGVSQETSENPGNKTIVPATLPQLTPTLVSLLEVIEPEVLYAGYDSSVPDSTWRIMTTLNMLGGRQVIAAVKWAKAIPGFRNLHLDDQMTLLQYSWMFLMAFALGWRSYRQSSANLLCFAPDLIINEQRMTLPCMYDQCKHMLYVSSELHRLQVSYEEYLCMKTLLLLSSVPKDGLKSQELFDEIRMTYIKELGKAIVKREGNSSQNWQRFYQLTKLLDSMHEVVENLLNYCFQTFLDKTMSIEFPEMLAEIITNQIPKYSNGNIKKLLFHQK
From the text: (§1) The procedure described in Anal. Biochem. 1970, 37, 244-252, hereby incorporated by reference, was used. Briefly, cytosol preparations of human glucocorticoid receptor-α [GRX] isoform and human progesterone receptor-A [PRA] isoform were obtained from Ligand Pharmaceuticals (San Diego, Calif.). Both receptor cDNAs were cloned into baculovirus expression vectors and expressed in insect SF21 cells. [^3H]-dexamethasone (Dex, specific activity 82-86 Ci/mmole) and [^3H]-progesterone (Prog, specific activity 97-102 Ci/mmol) were purchased from Amersham Life Sciences (Arlington Heights, Ill.). Glass fiber type C multiscreen MAFC NOB plates were from Millipore (Burlington, Mass.). Hydroxyapatide Bio-Gel HTP gel was from Bio-Rad Laboratories (Hercules, Calif.). Tris(hydroxymethyl)aminomethane (Tris), ethylenediaminetetraacetic acid (EDTA), glycerol, dithiothreitol (DTT) and sodium moylybdate were obtained from Sigma Chemicals (St. Louis, Mo.). Microscint-20 scintillation fluid was from Packard Instrument (Meriden, Conn.).
(§2) Stock solutions (32 mM) of compounds were prepared in dimethylsulfoxide (DMSO), and 50× solutions of test compounds were prepared from the 32 mM solution with a 50:50 mixture of DMSO/ethanol. The 50× solution was then diluted with binding buffer that contained 10 mM Tri-HCl, 1.5 mM EDTA, 10% glycerol, 1 mM DTT, 20 mM sodium molybdate, pH 7.5 @ 4° C. 1% DMSO/ethanol was present in the binding assay.
GRX and PRA binding reactions were performed in Millipore Multiscreen plates. For GR binding assays, [^3H]-Dex (˜35,000 dpm (˜0.9 nM)), GRX cytosol (˜35 μg protein), test compounds and binding buffer were mixed in a total volume of 200 μL and incubated at 4° C. overnight in a plate shaker. Specific binding was defined as the difference between binding of [^3H]Dex in the absence and in the presence of 1 μM unlabelled Dex.
(§3) After an overnight incubation, 50 μL of hydroxyapatite (25% weight/volume) slurry were added to each well and plates were incubated for 10 min at […] in a plate shaker. Plates were suctioned with a Millipore vacuum manifold and each well was rinsed with 300 μL of ice-cold binding buffer. A 250 μL aliquot of Packard Microscint-20 was added to each well and the wells were shaken at room temperature for 20 minutes. The amount of radioactivity was determined with a Packard TopCount plate reader.
(§4) The concentration of test compounds that inhibited 50% of specific binding (IC50) was determined from a Hill analysis of the competitive binding experiments. The Ki of test compounds was determined using the Cheng-Prusoff equation Ki=IC50/(1+[L*]/[KL]) where L* is the concentration of radioligand and KL is the dissociation constant of the radioligand determined from saturation analysis. For GRX, KL was ˜1.5 nM, and for PRA, KL was ˜4.5 nM.

[2] = target: T2, human progesterone receptor-A [PRA] isoform (Homo sapiens, UniProt P06401); experiment: Radioligand binding with human progesterone receptor cytosol ([3H]-progesterone); conditions: [3H]Prog competition, 4° C. overnight, Cheng-Prusoff, read-out: Ki (nM) PR
T2 construct: purchased Ligand Pharmaceuticals (San Diego, Calif.); host or cells: insect SF21 cells (baculovirus)
T2 sequence (P06401 1-769 isoform P06401-2): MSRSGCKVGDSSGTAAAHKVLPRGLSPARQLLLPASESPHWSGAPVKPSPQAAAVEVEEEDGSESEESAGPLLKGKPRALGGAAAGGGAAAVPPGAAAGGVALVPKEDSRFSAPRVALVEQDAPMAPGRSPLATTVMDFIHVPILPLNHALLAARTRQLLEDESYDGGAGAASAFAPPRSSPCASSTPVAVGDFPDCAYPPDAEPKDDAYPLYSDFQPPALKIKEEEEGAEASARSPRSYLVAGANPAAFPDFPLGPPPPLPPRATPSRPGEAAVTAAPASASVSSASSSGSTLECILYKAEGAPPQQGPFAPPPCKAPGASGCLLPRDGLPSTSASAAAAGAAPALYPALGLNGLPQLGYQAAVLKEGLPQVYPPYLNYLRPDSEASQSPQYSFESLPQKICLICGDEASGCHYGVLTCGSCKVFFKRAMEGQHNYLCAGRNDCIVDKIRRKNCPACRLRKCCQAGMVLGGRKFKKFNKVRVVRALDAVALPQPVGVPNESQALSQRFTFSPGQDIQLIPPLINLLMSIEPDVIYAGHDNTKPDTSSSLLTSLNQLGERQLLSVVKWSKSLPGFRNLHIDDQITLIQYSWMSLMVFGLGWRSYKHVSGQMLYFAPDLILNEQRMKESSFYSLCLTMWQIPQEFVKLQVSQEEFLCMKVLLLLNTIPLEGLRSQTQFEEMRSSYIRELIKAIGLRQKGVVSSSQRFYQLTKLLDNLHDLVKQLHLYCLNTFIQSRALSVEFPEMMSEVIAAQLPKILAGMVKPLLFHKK
From the text: as §1, §2
For PR binding assays, [^3H]Prog (˜36,000 dpm (˜0.8 nM)), PRA cytosol (˜40 μg protein), test compounds and binding buffer were mixed in a total volume of 200 μL and incubated at 4° C. at overnight in a plate shaker. Specific binding was defined as the difference between binding of [^3H]Prog in the absence and in the presence of 3 μM unlabelled Prog.
as §3, §4

| Ki [1] [nM] | Ki [2] [nM] | melting point [°C] | SMILES |
| --- | --- | --- | --- |
| 270 | 8600 | – | C=C1CC(C)(C)Nc2cc(OC)c3c(c21)C(c1cc(Cl)cc(Cl)c1)Oc1ccccc1-3 (stereo not drawn) [Example 4, 2,3,5-trihydro-11-methoxy-5-(3,5-dichlorophenyl)-2,2,4-dimethyl-4-methylene-1H-[1]benzopyrano[3,4-f]quinoline] |
| 200 | 10000 | – | COc1cc2c(c3c1-c1ccccc1OC3c1cc(Cl)cc(Cl)c1)C(C)=CC(C)(C)N2 (stereo not drawn) [Example 3, 2,5-dihydro-11-methoxy-5-(3,5-dichlorophenyl)-2,2,4-trimethyl-1H-[1]benzopyrano[3,4-f]quinoline] |
| 640 | 14000 | 84 to 86 | C=CCC1Oc2ccccc2-c2c(OC)cc3c(c21)C(C)=CC(C)(C)N3 (stereo not drawn) [Example 2, 2,5-dihydro-11-methoxy-5-(2-propenyl)-2,2,4-trimethyl-1H-[1]benzopyrano[3,4-f]quinoline] |
| 230 | 10000 | – | COc1cc2c(c3c1-c1ccccc1OC3c1ccccc1)C(C)=CC(C)(C)N2 (stereo not drawn) [Example 1, 2,5-dihydro-11-methoxy-5-phenyl-2,2,4-trimethyl-1H-[1]benzopyrano[3,4-f]quinoline] |
